From article PMC10337138 (Acta Neuropathologica Communications, 2023)

Key:
Details in all cases: 1 mM ATP; inhibitor
[1] = molecular target: T1, FYNA (Homo sapiens, UniProt P06241)
T1 construct: gene FYN
Protocol: (§1) Kinase selectivity panel Kinome profiling was conducted by AssayQuant Technologies (Marlboro, MA) using Sox chromophore technology and Sox-based peptide substrates developed for human kinases in a 384-well format. Compounds were tested at 1 µM in the presence of 1 mM ATP.

[2] = molecular target: FER (Homo sapiens, UniProt P16591)
Protocol: as §1

[3] = molecular target: CAMK2G (Homo sapiens, UniProt Q13555)
Protocol: as §1

[4] = molecular target: STK25/YSK1 (Homo sapiens, UniProt O00506)
Protocol: as §1

[5] = molecular target: CAMK1D (Homo sapiens, UniProt Q8IU85)
Protocol: as §1

[6] = molecular target: NUAK1 (Homo sapiens, UniProt O60285)
Protocol: as §1

[7] = molecular target: ITK (Homo sapiens, UniProt Q08881)
Protocol: as §1

[8] = molecular target: BRSK2 (Homo sapiens, UniProt Q8IWQ3)
Protocol: as §1

[9] = molecular target: FGFR1 (Homo sapiens, UniProt P11362)
Protocol: as §1

[10] = molecular target: MYLK2 (Homo sapiens, UniProt Q9H1R3)
Protocol: as §1

[11] = molecular target: T2, MNK1 (Homo sapiens, UniProt Q9BUB5)
T2 construct: gene MKNK1
Protocol: as §1

[12] = molecular target: BMP2K/BIKE (Homo sapiens, UniProt Q9NSY1)
Protocol: as §1

[13] = molecular target: PAK4 (Homo sapiens, UniProt O96013)
Protocol: as §1

[14] = molecular target: PTK2B (Homo sapiens, UniProt Q14289)
Protocol: as §1

[15] = molecular target: T3, YES (Homo sapiens, UniProt P07947)
T3 construct: gene YES1
Protocol: as §1

[16] = molecular target: DDR2 (Homo sapiens, UniProt Q16832)
Protocol: as §1

[17] = molecular target: LATS1 (Homo sapiens, UniProt O95835)
Protocol: as §1

[18] = molecular target: SLK (Homo sapiens, UniProt Q9H2G2)
Protocol: as §1

[19] = molecular target: MAPKAPK3/MK3 (Homo sapiens, UniProt Q16644)
Protocol: as §1

[20] = molecular target: PRKAA1/AMPK111 (Homo sapiens, UniProt Q13131)
Protocol: as §1

[21] = molecular target: CDC42BPA/MRCKA (Homo sapiens, UniProt Q5VT25)
Protocol: as §1

[22] = molecular target: PRKD3 (Homo sapiens, UniProt O94806)
Protocol: as §1

[23] = molecular target: RPS6KA5/MSK1 (Homo sapiens, UniProt O75582)
Protocol: as §1

[24] = molecular target: GAK (Homo sapiens, UniProt O14976)
Protocol: as §1

[25] = molecular target: T4, ZNF33A/ZAK (Homo sapiens, UniProt Q9NYL2)
T4 construct: gene MAP3K20
Protocol: as §1

[26] = molecular target: JAK1(JH1) (Homo sapiens, UniProt P23458)
Protocol: as §1

[27] = molecular target: CDK2/A2 (Homo sapiens, UniProt P24941)
Protocol: as §1

[28] = molecular target: MAPK8/JNK1 (Homo sapiens, UniProt P45983)
Protocol: as §1

[29] = molecular target: ALK (Homo sapiens, UniProt Q9UM73)
Protocol: as §1

[30] = molecular target: JAK1(JH1JH2) (Homo sapiens, UniProt P23458)
Protocol: as §1

[31] = molecular target: MARK4 (Homo sapiens, UniProt Q96L34)
Protocol: as §1

RPS6KA5/MSK1, sequence (O75582 whole entry): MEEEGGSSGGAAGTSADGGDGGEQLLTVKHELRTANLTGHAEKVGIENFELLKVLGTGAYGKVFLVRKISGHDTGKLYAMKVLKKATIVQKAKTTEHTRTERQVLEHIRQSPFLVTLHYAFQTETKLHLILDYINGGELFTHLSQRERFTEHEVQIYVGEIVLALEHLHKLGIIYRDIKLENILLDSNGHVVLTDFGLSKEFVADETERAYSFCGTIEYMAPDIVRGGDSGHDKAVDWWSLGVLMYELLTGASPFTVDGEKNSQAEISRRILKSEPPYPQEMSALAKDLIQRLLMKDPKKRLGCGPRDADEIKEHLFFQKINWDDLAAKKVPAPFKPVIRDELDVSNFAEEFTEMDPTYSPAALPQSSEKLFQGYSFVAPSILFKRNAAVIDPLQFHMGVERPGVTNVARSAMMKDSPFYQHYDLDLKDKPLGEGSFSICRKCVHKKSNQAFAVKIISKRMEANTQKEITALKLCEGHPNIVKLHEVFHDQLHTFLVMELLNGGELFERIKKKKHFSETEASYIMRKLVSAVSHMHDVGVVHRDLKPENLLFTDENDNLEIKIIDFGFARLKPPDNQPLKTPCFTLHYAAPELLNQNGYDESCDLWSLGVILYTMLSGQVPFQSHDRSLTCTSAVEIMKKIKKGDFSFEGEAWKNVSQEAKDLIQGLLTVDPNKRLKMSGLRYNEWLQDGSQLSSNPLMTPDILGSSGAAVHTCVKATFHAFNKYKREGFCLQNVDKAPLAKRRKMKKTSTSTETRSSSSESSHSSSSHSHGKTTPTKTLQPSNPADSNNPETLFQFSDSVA
MYLK2, sequence (Q9H1R3 whole entry): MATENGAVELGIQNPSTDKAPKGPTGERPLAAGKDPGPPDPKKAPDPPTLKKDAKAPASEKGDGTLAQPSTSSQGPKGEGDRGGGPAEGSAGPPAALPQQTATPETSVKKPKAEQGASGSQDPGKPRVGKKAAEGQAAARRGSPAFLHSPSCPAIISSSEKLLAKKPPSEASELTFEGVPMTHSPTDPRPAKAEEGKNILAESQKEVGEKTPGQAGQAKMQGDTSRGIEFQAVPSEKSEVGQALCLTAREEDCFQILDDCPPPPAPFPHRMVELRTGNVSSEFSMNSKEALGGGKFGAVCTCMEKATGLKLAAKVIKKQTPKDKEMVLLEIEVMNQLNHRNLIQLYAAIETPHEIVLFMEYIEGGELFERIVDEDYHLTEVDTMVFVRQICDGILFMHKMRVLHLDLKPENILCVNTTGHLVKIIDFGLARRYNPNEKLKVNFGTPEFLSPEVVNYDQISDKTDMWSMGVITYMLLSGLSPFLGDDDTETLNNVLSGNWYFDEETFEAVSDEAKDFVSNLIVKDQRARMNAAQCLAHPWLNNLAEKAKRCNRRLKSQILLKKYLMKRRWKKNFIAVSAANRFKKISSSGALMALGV
STK25/YSK1, sequence (O00506 whole entry): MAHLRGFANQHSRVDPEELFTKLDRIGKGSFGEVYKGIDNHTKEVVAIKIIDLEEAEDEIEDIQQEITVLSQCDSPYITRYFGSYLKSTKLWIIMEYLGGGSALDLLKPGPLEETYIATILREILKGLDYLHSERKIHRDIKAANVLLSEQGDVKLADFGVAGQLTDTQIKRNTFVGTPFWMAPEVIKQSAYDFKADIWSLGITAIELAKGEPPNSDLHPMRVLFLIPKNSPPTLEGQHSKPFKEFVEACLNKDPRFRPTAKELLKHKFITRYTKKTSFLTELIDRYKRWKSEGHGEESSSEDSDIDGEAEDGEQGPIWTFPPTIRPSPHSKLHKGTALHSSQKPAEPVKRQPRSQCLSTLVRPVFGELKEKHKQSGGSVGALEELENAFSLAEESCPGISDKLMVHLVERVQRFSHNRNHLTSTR
T1 sequence (P06241 whole entry): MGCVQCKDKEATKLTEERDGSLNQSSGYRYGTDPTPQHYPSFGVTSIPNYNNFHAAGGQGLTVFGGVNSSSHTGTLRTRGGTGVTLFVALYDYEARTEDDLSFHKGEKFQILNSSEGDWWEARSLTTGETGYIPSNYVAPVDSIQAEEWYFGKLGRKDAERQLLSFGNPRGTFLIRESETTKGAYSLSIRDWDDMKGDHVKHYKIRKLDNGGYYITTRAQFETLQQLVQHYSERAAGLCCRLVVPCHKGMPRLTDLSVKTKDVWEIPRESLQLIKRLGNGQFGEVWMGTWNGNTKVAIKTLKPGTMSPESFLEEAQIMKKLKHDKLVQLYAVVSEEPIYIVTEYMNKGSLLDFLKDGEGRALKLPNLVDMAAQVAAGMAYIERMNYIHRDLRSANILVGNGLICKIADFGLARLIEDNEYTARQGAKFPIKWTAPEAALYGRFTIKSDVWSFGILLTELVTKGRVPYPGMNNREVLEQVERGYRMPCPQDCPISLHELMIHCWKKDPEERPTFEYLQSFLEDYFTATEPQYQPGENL
CDC42BPA/MRCKA, sequence (Q5VT25 whole entry): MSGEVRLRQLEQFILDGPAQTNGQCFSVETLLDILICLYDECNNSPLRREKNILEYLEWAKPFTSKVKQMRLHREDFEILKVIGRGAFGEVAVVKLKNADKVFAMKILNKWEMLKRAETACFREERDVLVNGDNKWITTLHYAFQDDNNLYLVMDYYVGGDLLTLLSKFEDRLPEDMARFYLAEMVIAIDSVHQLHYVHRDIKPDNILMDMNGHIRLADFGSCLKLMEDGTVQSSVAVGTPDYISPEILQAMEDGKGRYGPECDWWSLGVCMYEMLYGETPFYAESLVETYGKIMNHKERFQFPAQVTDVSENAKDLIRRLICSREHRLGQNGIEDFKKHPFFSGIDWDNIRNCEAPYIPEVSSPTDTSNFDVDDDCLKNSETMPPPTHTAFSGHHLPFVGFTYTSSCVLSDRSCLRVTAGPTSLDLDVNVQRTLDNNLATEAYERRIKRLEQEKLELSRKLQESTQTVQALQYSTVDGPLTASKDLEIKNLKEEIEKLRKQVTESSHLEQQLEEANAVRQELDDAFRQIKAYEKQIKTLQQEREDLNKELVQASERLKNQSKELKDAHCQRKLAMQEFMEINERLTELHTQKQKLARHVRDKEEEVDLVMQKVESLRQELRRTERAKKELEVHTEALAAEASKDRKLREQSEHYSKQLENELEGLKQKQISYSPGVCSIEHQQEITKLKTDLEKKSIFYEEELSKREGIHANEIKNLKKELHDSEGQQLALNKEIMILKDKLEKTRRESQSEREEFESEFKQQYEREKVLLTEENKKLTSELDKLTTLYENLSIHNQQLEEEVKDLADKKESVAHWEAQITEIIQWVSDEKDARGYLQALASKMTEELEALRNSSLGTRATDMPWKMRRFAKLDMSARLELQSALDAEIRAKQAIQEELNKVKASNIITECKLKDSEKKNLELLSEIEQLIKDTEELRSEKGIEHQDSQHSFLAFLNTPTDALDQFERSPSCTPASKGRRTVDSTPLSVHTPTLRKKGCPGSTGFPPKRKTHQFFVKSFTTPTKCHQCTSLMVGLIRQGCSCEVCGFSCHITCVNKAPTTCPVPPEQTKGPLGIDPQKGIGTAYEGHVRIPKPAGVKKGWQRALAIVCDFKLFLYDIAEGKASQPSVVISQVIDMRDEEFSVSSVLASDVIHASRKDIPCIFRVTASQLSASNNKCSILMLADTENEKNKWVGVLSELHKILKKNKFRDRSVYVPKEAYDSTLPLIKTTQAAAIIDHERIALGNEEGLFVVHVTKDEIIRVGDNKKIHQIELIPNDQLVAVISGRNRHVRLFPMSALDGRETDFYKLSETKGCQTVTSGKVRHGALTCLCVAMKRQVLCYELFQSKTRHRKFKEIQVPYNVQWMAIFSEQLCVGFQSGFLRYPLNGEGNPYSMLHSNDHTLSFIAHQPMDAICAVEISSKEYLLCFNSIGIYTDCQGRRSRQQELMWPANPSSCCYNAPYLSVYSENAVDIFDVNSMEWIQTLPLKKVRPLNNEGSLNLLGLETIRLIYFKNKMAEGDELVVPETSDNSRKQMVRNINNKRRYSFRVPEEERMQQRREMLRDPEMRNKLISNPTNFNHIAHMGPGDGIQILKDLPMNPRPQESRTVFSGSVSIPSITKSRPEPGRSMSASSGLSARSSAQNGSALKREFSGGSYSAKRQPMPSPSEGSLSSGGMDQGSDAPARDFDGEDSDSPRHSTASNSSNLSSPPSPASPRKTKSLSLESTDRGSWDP
ITK, sequence (Q08881 whole entry): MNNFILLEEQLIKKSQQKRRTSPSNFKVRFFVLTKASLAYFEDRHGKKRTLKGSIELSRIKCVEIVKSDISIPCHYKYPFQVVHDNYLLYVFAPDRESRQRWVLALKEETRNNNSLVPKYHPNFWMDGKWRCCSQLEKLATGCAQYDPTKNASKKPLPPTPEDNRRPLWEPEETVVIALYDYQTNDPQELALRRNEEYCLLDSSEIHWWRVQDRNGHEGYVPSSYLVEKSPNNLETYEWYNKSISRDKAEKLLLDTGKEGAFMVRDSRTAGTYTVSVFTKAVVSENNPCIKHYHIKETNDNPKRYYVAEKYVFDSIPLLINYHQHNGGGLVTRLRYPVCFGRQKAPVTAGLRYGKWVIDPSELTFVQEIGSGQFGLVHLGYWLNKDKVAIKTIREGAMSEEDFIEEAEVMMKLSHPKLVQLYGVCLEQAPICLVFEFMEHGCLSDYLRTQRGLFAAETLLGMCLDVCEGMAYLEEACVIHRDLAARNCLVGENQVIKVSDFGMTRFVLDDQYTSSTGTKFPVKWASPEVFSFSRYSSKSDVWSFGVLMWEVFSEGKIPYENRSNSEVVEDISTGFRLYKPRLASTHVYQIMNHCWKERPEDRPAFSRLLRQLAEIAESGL

In the case of `C=CC(=O)N1CCC[C@@H](n2nc(-c3ccc(Oc4ccccc4)cc3)c3c(N)ncnc32)C1` [Ibrutinib], the “1 µM GBD00276 (ibrutinib), % inhibition” value [1] is reported as 15.99%, the “1 µM GBD00276 (ibrutinib), % inhibition” value [2] is reported as 6.712% and the “1 µM GBD00276 (ibrutinib), % inhibition” value [3] is reported as 8.429%. The “1 µM GBD00276 (ibrutinib), % inhibition” value [4] was 10.23%, the “1 µM GBD00276 (ibrutinib), % inhibition” value [5] was 1.984% and the “1 µM GBD00276 (ibrutinib), % inhibition” value [6] was -1.079%. For the same compound, the “1 µM GBD00276 (ibrutinib), % inhibition” value [7] was 38.79%, the “1 µM GBD00276 (ibrutinib), % inhibition” value [8] was -9.3% and the “1 µM GBD00276 (ibrutinib), % inhibition” value [9] was 21.97%. For the same compound, the “1 µM GBD00276 (ibrutinib), % inhibition” value [10] was -0.5778%, the “1 µM GBD00276 (ibrutinib), % inhibition” value [11] was -4.408% and the “1 µM GBD00276 (ibrutinib), % inhibition” value [12] was 12.88%. The “1 µM GBD00276 (ibrutinib), % inhibition” value [13] was 3.525%, the “1 µM GBD00276 (ibrutinib), % inhibition” value [14] was 21.97% and the “1 µM GBD00276 (ibrutinib), % inhibition” value [15] was 45.59%. The “1 µM GBD00276 (ibrutinib), % inhibition” value [16] was 20.22%, the “1 µM GBD00276 (ibrutinib), % inhibition” value [17] was 11.97% and the “1 µM GBD00276 (ibrutinib), % inhibition” value [18] was -2.298%. For the same compound, the “1 µM GBD00276 (ibrutinib), % inhibition” value [19] was 9.483%, the “1 µM GBD00276 (ibrutinib), % inhibition” value [20] was 6.623% and the “1 µM GBD00276 (ibrutinib), % inhibition” value [21] was -8.638%. The “1 µM GBD00276 (ibrutinib), % inhibition” value [22] was 1.376%, the “1 µM GBD00276 (ibrutinib), % inhibition” value [23] was -5.427% and the “1 µM GBD00276 (ibrutinib), % inhibition” value [24] was -7.706%. For the same compound, the “1 µM GBD00276 (ibrutinib), % inhibition” value [25] was -3.326%, the “1 µM GBD00276 (ibrutinib), % inhibition” value [26] was 19.49% and the “1 µM GBD00276 (ibrutinib), % inhibition” value [27] was -9.861%. For the same compound, the “1 µM GBD00276 (ibrutinib), % inhibition” value [28] was 10.25%, the “1 µM GBD00276 (ibrutinib), % inhibition” value [29] was 3.723% and the “1 µM GBD00276 (ibrutinib), % inhibition” value [30] was 20.73%. For the same compound, the “1 µM GBD00276 (ibrutinib), % inhibition” value [31] was -1.923%.
